Data reported in PMC10468942, “A Fluorescent Probe as a Lead Compound for a Selective α-Synuclein PET Tracer: Development of a Library of 2-Styrylbenzothiazoles and Biological Evaluation of [^18F]PFSB and [^18F]MFSB” (ACS Omega, 2023).
“And” between values parts separate entries of the source, which are not always exact repeats. Equal entries are not always repeated.

How the values were obtained:
Aβ1-42 fibrils = target: T1, Aβ1-42 fibrils (Homo sapiens, UniProt P05067); test: [^3H]PiB competition binding assay on Aβ fibrils; conditions: for competition with [^3H]PiB / binding to Aβ fibrils (in words): Aβ1–42 fibrils
T1 construct: Synthetic lyophilized human Aβ1-42 peptide; purchased EMC Microcollections, Tuebingen, Germany; host or cells: synthetic peptide
T1 sequence (P05067 672-713 limits assumed): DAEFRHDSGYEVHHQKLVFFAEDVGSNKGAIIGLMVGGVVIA
Method: Following the cloning of the DNA construct encoding full-length αSYN into the pET-22b vector and its transformation into BL21 cells, the expression of human αSYN from a prokaryotic host was induced overnight in Escherichia coli at 20 °C with 0.5 mM IPTG. The cells were harvested by centrifugation, resuspended in 20 mM Tris-HCl pH 7.6, 25 mM NaCl and 1× complete protease inhibitor (Roche, Basel, Switzerland), and lysed by sonication. […] Anion exchange chromatography (HiTrap Q, GE Healthcare, Chicago, Illinois) was used to trap the produced αSYN, which was eluted with NaCl 0.1 M over 20 column volumes. Fractions containing αSYN were concentrated and further purified through a Superdex 75 SEC column equilibrated with PBS. […] A 4 mg/mL solution of αSYN in 20 mM K3PO4 pH 9.1 was placed in an orbital shaker at 37 °C, 1000 rpm for 5 days to prepare P91s. The assemblies were either sonicated with cycles of 20 s on and 10 s off at 50% amplitude (Q800R3, Qsonica) for a total of 10 min or directly aliquoted in volumes of 10 μL each stored at −80 °C until use. The method for Aβ1-42 fibrils generation was adapted from Bagchi et al. and described in Kuebler et al.[17],[27] […] Aggregation was induced by incubation in an Eppendorf Thermomixer at 37 °C with shaking at 800 rpm for 72 h. The resulting fibrils were sonicated for 3 min in a water bath (Elmasonic S 60 H, Elma Schmidbauer GmbH, Singen, Germany). The final products were aliquoted, frozen on dry ice, and stored at −80 °C until use.
(§1) Concentrations of αSYN and Aβ1-42 fibrils were as described above.
(§2) Plates were incubated on a shaker (MaxQ 6000, Thermo Fisher Scientific, Inc., Marietta, OH) at 50 rpm for 2 h at 37 °C, covered by removable sealing tapes (PerkinElmer, Waltham, MA). Vacuum filtration and read-out were performed as previously reported.[17] […] Data points were fitted using nonlinear regression analysis in GraphPad Prism (GraphPad Software, Inc., Version 8.4.0, La Jolla).

αSYN fibrils [1] = target: T2, αSYN fibrils (Homo sapiens, UniProt P37840); test: [^3H]MODAG-001 competition binding assay on αSYN fibrils; conditions: for Ki: n = 2, single determinations
T2 construct: cloning of the DNA construct encoding full-length αSYN into the pET-22b vector; made in house; host or cells: Escherichia coli BL21
Method: Following the cloning of the DNA construct encoding full-length αSYN into the pET-22b vector and its transformation into BL21 cells, the expression of human αSYN from a prokaryotic host was induced overnight in Escherichia coli at 20 °C with 0.5 mM IPTG. The cells were harvested by centrifugation, resuspended in 20 mM Tris-HCl pH 7.6, 25 mM NaCl and 1× complete protease inhibitor (Roche, Basel, Switzerland), and lysed by sonication. Additionally, they were boiled for 15 min and centrifuged at 12 000g for 30 min. Anion exchange chromatography (HiTrap Q, GE Healthcare, Chicago, Illinois) was used to trap the produced αSYN, which was eluted with NaCl 0.1 M over 20 column volumes. Fractions containing αSYN were concentrated and further purified through a Superdex 75 SEC column equilibrated with PBS. Additional purification was conducted via a high-capacity endotoxin removal spin column (Pierce, Waltham, Massachusetts), affording an endotoxin level below 1.0 EU/mg. The monomeric state and monodispersity of pure αSYN were confirmed by dynamic light scattering and fibrillation was performed according to the protocol from Makky et al.[26] A 4 mg/mL solution of αSYN in 20 mM K3PO4 pH 9.1 was placed in an orbital shaker at 37 °C, 1000 rpm for 5 days to prepare P91s. The assemblies were either sonicated with cycles of 20 s on and 10 s off at 50% amplitude (Q800R3, Qsonica) for a total of 10 min or directly aliquoted in volumes of 10 μL each stored at −80 °C until use. The method for Aβ1-42 fibrils generation was adapted from Bagchi et al. and described in Kuebler et al.[17],[27] […]
Plates were incubated on a shaker (MaxQ 6000, Thermo Fisher Scientific, Inc., Marietta, OH) at 50 rpm for 2 h at 37 °C, covered by removable sealing tapes (PerkinElmer, Waltham, MA). Vacuum filtration and read-out were performed as previously reported.[17] […]

αSYN fibrils [2] = target: T2, αSYN fibrils; test: [^3H]PiB competition binding assay on αSYN fibrils
Method: Following the cloning of the DNA construct encoding full-length αSYN into the pET-22b vector and its transformation into BL21 cells, the expression of human αSYN from a prokaryotic host was induced overnight in Escherichia coli at 20 °C with 0.5 mM IPTG. The cells were harvested by centrifugation, resuspended in 20 mM Tris-HCl pH 7.6, 25 mM NaCl and 1× complete protease inhibitor (Roche, Basel, Switzerland), and lysed by sonication. […] Anion exchange chromatography (HiTrap Q, GE Healthcare, Chicago, Illinois) was used to trap the produced αSYN, which was eluted with NaCl 0.1 M over 20 column volumes. Fractions containing αSYN were concentrated and further purified through a Superdex 75 SEC column equilibrated with PBS. […] A 4 mg/mL solution of αSYN in 20 mM K3PO4 pH 9.1 was placed in an orbital shaker at 37 °C, 1000 rpm for 5 days to prepare P91s. The assemblies were either sonicated with cycles of 20 s on and 10 s off at 50% amplitude (Q800R3, Qsonica) for a total of 10 min or directly aliquoted in volumes of 10 μL each stored at −80 °C until use. […] The final products were aliquoted, frozen on dry ice, and stored at −80 °C until use.
as §1, §2

αSYN fibrils [3] = target: αSYN fibrils; set-up: method as in PMID 33819025; conditions: fluorescence titration; cited from earlier work
[4] = In vivo dynamic PET/MR imaging in healthy wild-type mice; set-up: species or system C57BL/6J mice
Method: The animal experiments were performed in compliance with the European directives on the protection and use of laboratory animals (Council Directive 2010/63/UE) and the German animal welfare act with approval from the local authorities (Regierungspräsidium Tuebingen, R3/19G). Healthy wild-type female C57BL/6J mice (20.3 ± 0.9 g; 9 weeks old) purchased from Charles River Laboratories (Sulzbach, Germany) were maintained in our vivarium on a 12:12 hour light–dark cycle, and were kept at a temperature of 22 °C with 40–60% humidity and free access to a standard diet and tap water.
The mice (n = 3) were anesthetized with 1.5% isoflurane evaporated in 100% oxygen at a flow rate of 0.8 L/min. A body temperature of 37 °C was maintained using a feedback temperature control unit. PET imaging studies were performed on Inveon dedicated microPET system (Inveon D-PET, Siemens, Knoxville, TN). Five seconds after the start of PET acquisition, the mice were injected intravenously with 9.9 ± 0.6 MBq of [^18F]MFSB (Am = 46.2 ± 2.5 GBq/μmol at the time of injection). The 1 h dynamic acquisitions were divided into 39 time frames (12 × 5 s, 6 × 10 s, 6 × 30 s, 5 × 60 s, and 10 × 300 s). A 13-min transmission measurement with a cobalt-57 point source was performed for attenuation correction. Subsequently, an anatomical MR scan with a 7 Tesla MR scanner (ClinScan, Bruker BioSpin MRI GmbH, Ettlingen, Germany) using a rat whole-body volume coil and the Paravision software (v6.0.1, Bruker, Ettlingen, Germany) using a T2-weighted Turbo-RARE MRI sequence.
The PET image was reconstructed via the OSEM3D/SP-MAP reconstruction algorithm and coregistered to the whole-body MRI scan. Volumes of interest (VOIs) were hand-drawn for the relevant organs based on the MR anatomy in PMOD (PMOD Technologies, Faellanden, Switzerland, Version 4.2) and VOIs at different regions in the mouse brain were extracted using the atlas provided by PMOD to calculate the respective time–activity curves (TACs). Standardized uptake values (SUVs) were calculated as a ratio of the detected activity with injected activity and weight (SUV = (TAC (kBq/cc)/inj. activity (kBq)) × weight (g)).

[5] = system: αSYN pathology in human brain slices (MSA, PD, AD, control); test: In vitro autoradiography on human brain slices; type: binding; conditions: 10 nM tracer; for AD/frontal cortex SB ratio: AD sample vs frontal cortex control
Method: Post-mortem human brain slices (10 μm thickness) were obtained from the subject cases and were analyzed by the Neurobiobank München (NBM, Munich, Germany), where tissues were collected on the basis of written informed consent according to the guidelines of the ethics committee of the Ludwig Maximilians University of Munich, Germany (# 345-13). The use of brain tissue samples in this study was approved by the ethics committee of the Faculty of Medicine at the University of Tuebingen (Ethics approval number: 813/2018BO2). Table S4 (Supporting Information) summarizes the information of the subjects from which samples were obtained and used in the experiment.
For autoradiography, frozen brain slices were thawed for 1 h before preincubation in bovine serum albumin (BSA) buffer for 25 min at room temperature. To determine total binding (TB), brain slices were incubated with the tracer (10 nM [^18F]PFSB, 10 nM [^18F]MFSB). Incubation of consecutive slices with the corresponding nonradioactive compounds (10 μM PFSB, 10 μM MFSB) was performed to determine nonspecific binding (NSB). The nonradioactive compounds were prepared by dissolving in DMSO to 10 mM, which yielded a DMSO concentration of ≤0.1% in the final solution. Incubation was carried out for 1 hour at room temperature with subsequent washing in cold BSA buffer (3 × 10 min) followed by three dippings in cold deionized water. After drying under an IR lamp, brain slices were exposed to a storage phosphor screen (Molecular Dynamics, Caesarea, Israel) for 18 h, which was then scanned in a phosphor imager (STORM 840, Molecular Dynamics, Sunnyvale, CA).
Quantitative data analysis was performed by drawing four regions of interest (ROIs) in relevant areas of the slice and one ROI next to it for background subtraction (Figures S7 and S8; ImageJ 1.8.0_172, National Institute of Health, Bethesda, MD).[28] Specific binding (SB) is obtained by subtracting NSB from TB. The SB disease/SB control ratio was calculated by dividing by the SB in diseased tissues with the respective SB in control tissues.

[6] = mice n = 3, i.v., 60 min dynamic PET
[7] = nonmethylated compounds, Table 1, two values in a cell = single determinations, a: mean Ki ± SEM of three data points, b: single data point, read-out: Ki

Structure (SMILES): Fc1ccc2nc(C=Cc3ccc(N4CCOCC4)cc3)sc2c1 [compound 45, 4-(4-(2-(6-Fluorobenzo[d]thiazol-2-yl)vinyl)phenyl)morpholine]
- αSYN/Aβ selectivity (in words) (Aβ1-42 fibrils; [^3H]PiB competition on αSYN and Aβ fibrils): remained unchanged
- fold lower Ki than PFSB (αSYN fibrils [1]; [^3H]MODAG-001 competition): 4.6 fold
- Ki (αSYN fibrils [1]): 20.3 nM and 41.2 nM
- Ki (αSYN fibrils [2]; Ki, αSYN [^3H]PiB competition, mean Ki ± SEM, n = 3, or single determinations): 10.3 ± 4.7 nM
- factor of affinity improvement compared to PFSB (αSYN fibrils [2]; [^3H]PiB competition, Ki-MFSB vs Ki-PFSB): 2.5

Structure (SMILES): CN1CCN(c2ccc(C=Cc3sc4ccccc4[n+]3C)cc2)CC1 [RB2, 3-Methyl-2-(4-(4-methylpiperazin-1-yl)styryl)benzo[d]thiazol-3-ium Iodide, reference compound]
- Kd (αSYN fibrils [3]): 4400 ± 500 nM
- Ki (αSYN fibrils [2]; Ki-RB2, αSYN [^3H]PiB competition): 333000 nM
- Ki (αSYN fibrils [2]; methylated compounds, Table 2, two values in a cell = single determinations, read-out: Ki): > 400 nM

Structure (SMILES): [18F]c1ccc2nc(/C=C/c3ccc(N4CCOCC4)cc3)sc2c1 [[^18F]MFSB]
- SUV, TAC peak value, blood [4, 6]: 6.94 ± 0.71
- SUV, TAC peak value, brain [4, 6]: 1.79 ± 0.02
- SUV, TAC peak value, kidney [4, 6]: 2.70 ± 0.27
- SUV, TAC peak value, liver [4, 6]: 5.00 ± 0.35
- SUV, TAC peak value, lung [4, 6]: 4.43 ± 0.33
- SUV, TAC peak value, bone ([4]; mice n = 3, i.v., at 60 min): 1.52 ± 0.20
- SUV peak in the cerebellum ([4]; mice, PET): up to 1.76
- SUV peak in the frontal cortex ([4]; mice, PET): up to 1.58
- SUVbrain/SUVblood ([4]; mice, PET): 2.7
- Time to peak, bone ([4]; mice, PET TAC): 60 min
- Time to peak, brain ([4]; mice, PET TAC): 25 min
- Time to peak, kidney ([4]; mice, PET TAC): 110 s
- Time to peak, liver ([4]; mice, PET TAC): 90 s
- Time to peak, lung ([4]; mice, PET TAC): 15 s
- AUC, brain ([4]; mice, PET TAC over 60 min): 98.13 ± 1.30
- AUC, kidney ([4]; mice, PET TAC over 60 min): 102.27 ± 1.33
- AUC, liver ([4]; mice, PET TAC over 60 min): 188.40 ± 6.15
- AUC, lung ([4]; mice, PET TAC over 60 min): 51.22 ± 3.94
- AD/frontal cortex SB ratio [5]: remained favorable

Structure (SMILES): C(=Cc1nc2ccccc2s1)c1ccc(N2CCCC2)cc1 [17a, 2-(4-(Pyrrolidin-1-yl)styryl)benzo[d]thiazole]
- competition with [^3H]PiB / binding to Aβ fibrils (in words) (Aβ1-42 fibrils): None of the tested compounds appreciably competed against [^3H]PiB
- Ki (αSYN fibrils [2]; [7]): 73.4 ± 19 nM

Structure (SMILES): [18F]c1ccc2nc(/C=C/c3ccc(N4CCCCC4)cc3)sc2c1 [[^18F]PFSB]
- AD/frontal cortex SB ratio [5]: 1.06
- specific binding signal intensity ratio MSA / control of the same brain area ([5]; MSA patient slices vs control, n = 1): 3.7 and 4.2

Structure (SMILES): C(=Cc1nc2ccccc2s1)c1ccc(N2CCOCC2)cc1 [15a, 4-(4-(2-(Benzo[d]thiazol-2-yl)vinyl)phenyl)morpholine]
- competition with [^3H]PiB / binding to Aβ fibrils (in words) (Aβ1-42 fibrils): None of the tested compounds appreciably competed against [^3H]PiB
- Ki (αSYN fibrils [2]; [7]): 92 ± 30.3 nM

Structure (SMILES): Fc1ccc2nc(C=Cc3ccc(N4CCCCC4)cc3)sc2c1 [9a, 6-Fluoro-2-(4-(piperidin-1-yl)styryl)benzo[d]thiazole]
- competition with [^3H]PiB / binding to Aβ fibrils (in words) (Aβ1-42 fibrils): None of the tested compounds appreciably competed against [^3H]PiB
- Ki (αSYN fibrils [1]): 125 nM and 159 nM
- Ki (αSYN fibrils [2]; [7]): 25.4 ± 2.3 nM
